Entries after “also recorded” stand apart in the source; their conditions may differ.
Assays:
ST2L [1] = experiment: ST2L protein stability in primary MEFs treated with CHX (immunoblot, flow cytometry); assay type: cell-based, mouse
Description: (§1) Primary mouse embryonic fibroblast cells (MEFs) were prepared as previously described^35. Briefly, mouse embryos were collected around embryonic day 14. Visible organs such as the brain, liver, and spleen were removed, and the leftover tissue was quickly minced and incubated in 0.25% trypsin-EDTA for 2 hr at 37° C. Cells were then washed with media and seeded in DMEM with 10% FBS, 1% penicillin/streptomycin and 0.055 mM β-mercaptoethanol. Every three days cells were passaged. Starting at passage 2, cells were used for studies.
Dead cells were routinely excluded with Zombie UV Fixable Viability Kit (BioLegend) or Fixable Aqua Dead Cell Stain (Thermo Fisher Scientific). Lineage-positive cells were excluded by staining for B220 (RA3-6B2), […] (145-2C11), TCRβ (H57-597), TCRγδ (eBioGL3), Ter119 (Ter119), NK1.1 (PK136), CD11b (M1/70), and CD11c (N418). For surface staining CD45 (30-F11), KLRG1 (2F1), CD25 (PC61.5), CD127 (A7R34), Sca1 (D7), Thy1/CD90.2 (53-2.1), and ST2 (RMST2-2, eBioscience) were used. For intracellular staining, cells were fixed and permeabilized with the Transcription Buffer Set (BD Pharmingen) per manufacturer's instructions followed by staining with anti-GATA3 (TWAJ, eBioscience), anti-IL-5 (TRFK5, Biolegend) and anti-IL-13 (eBio13A, eBioscience). Stained cells were used for flow cytometry analysis using a LSRII or Attune NxT (Becton Dickinson, BD) flow cytometer. Data were analyzed using the FlowJo software. Different cell types were identified by the following gating strategies^36,37: lung ILC2s (CD45^+Lin KLRG1^+CD90^+ or CD45^+Lin GATA3^+CD90^+CD25^+), BM ILC2P (CD45^+Lin^− CD127^+CD25^+).
(§2) Protein extracts from cells or tissues were prepared using whole protein lysis buffer (WL buffer) containing 50 mM Tris (pH 8), 0.4M NaCl, 0.5% NP-40, 10% glycerol, 1 mM EDTA, 1 mM DTT, and 1 mM PMSF as described previously^39. To extract proteins from MEFs, cells were washed with PBS once and then lysed with WL buffer on ice for 30 min. Lung or brain tissues from mice that had been euthanized and perfused with cold PBS were directly homogenized in the presence of WL buffer or alternatively, tissues were briefly disrupted in PBS and the insoluble fractions were then lysed in WL buffer for protein extraction. Immunoblot analysis was performed using the following antibodies: anti-ST2L (R3880-2, Abiocode), anti-ST2 (M3880-1, Abiocode), anti-SV2A (M3004-1, Abiocode), anti-Tubulin (M0267-1b, Abiocode).

BM ILC2P = experiment: Flow cytometry analysis of bone marrow ILC2P in LEV-treated mice; assay type: in vivo, mouse; details: LEV 17 mg/kg intranasal daily day 1, 2, 3; BM harvested day 4
Excerpt: (§3) Sv2a^+/− mice on C57BL/6 129Sv mixed genetic background^21 were purchased from the Jackson laboratory (B6;129P2-Sv2a^tm1SudSv2b^tm1Sud/J) and were backcrossed to C57 background for at least 5 generations prior to use. Mice were housed under specific-pathogen-free conditions. Sex-matched littermates between 6 and 16 weeks of age were used for experiments if not otherwise indicated. C57BL/6 mice were purchased from the Jackson Laboratory or the UCLA animal core facility. C57BL/6 mice were randomly assigned to treatment groups after matching for sex and age. […] For the IL-33 or papain-induced lung inflammation models, mice were treated intranasally on days 1, 2, and 3. Bone marrows and lungs were harvested, processed, and analyzed on day 4. The inventors were not blinded to allocation during the studies. All studies were conducted in accordance with animal protocols approved by the Animal Research Committee of the University of California Los Angeles.
(§4) Mice were euthanized and perfused with cold PBS. […]
(§5) Dead cells were routinely excluded with Zombie UV Fixable Viability Kit (BioLegend) or Fixable Aqua Dead Cell Stain (Thermo Fisher Scientific). […] Data were analyzed using the FlowJo software. […]

SV2A protein [2] = target: T1, SV2A protein (Mus musculus, UniProt Q9JIS5); experiment: Immunoblot analysis of SV2A protein in lungs and brain of intranasally treated mice; assay type: in vivo
T1 construct: from tissue; host or cells: lung and brain of C57BL/6 mice
Excerpt: as §3
(§6) Protein extracts from cells or tissues were prepared using whole protein lysis buffer (WL buffer) containing 50 mM Tris (pH 8), 0.4M NaCl, 0.5% NP-40, 10% glycerol, 1 mM EDTA, 1 mM DTT, and 1 mM PMSF as described previously^39. To extract proteins from MEFs, cells were washed with PBS once and then lysed with WL buffer on ice for 30 min. […]

ST2L [3] = experiment: Immunoblot analysis of ST2L in lungs of LEV-treated mice; assay type: in vivo, mouse; details: LEV intranasal for 4 hr or daily for three consecutive days (3D), vs PBS
Excerpt: as §3, §6

SV2A protein [4] = target: T1, SV2A protein; experiment: Cell-free protein stability assay (lung or brain protein extracts, immunoblot with anti-SV2A); assay type: biochemical
Description: Proteins extracts were prepared by incubating WL buffer with brain or lung tissues that had been pre-washed with PBS. […] The reaction mixtures were subsequently incubated at 37° C. for 1 hr, and the reactions were terminated by adding 20 μl of 4×SDS sample buffer followed by denaturing at 95° C. for 5 min. The samples were then analyzed directly by immunoblot analysis.
These two models were tested using the in vitro cell-free protein stability assays. […] We prepared two groups of reaction mixtures by mixing 0.2 μg of brain protein extract from WT mice with an excessive amount of either brain protein extract or lung protein extract prepared from Sv2a^−/− pup.

lung ILC2s [5] = experiment: Papain-induced mouse lung inflammation model, flow cytometry of lung ILC2s; assay type: in vivo; details: papain 50 μg + LEV 17 mg/kg intranasal daily day 1, 2, 3; day 4; vs papain alone
Excerpt: as §3, §4, §5

lung ILC2s [6] = experiment: Flow cytometry analysis of lung ILC2 responses in LEV-treated naive mice; assay type: in vivo, mouse; details: LEV 17 mg/kg intranasal daily day 1, 2, 3
Excerpt: as §3
Mice were euthanized and perfused with cold PBS. Lung lobes were diced into small pieces and incubated with 0.2 mg/mL collagenase P. 0.8 mg/mL Dispase II, 0.1 mg/mL DNase I in RPMI1640 containing 5% FBS for 1 hr at 37° C. before being mashed through […] cell strainers. Bone marrow cells were collected by flushing out the marrow from femurs and tibias using a syringe with PBS. Red blood cells were removed using RBC lysis buffer (Sigma-Aldrich, Cat #: R7757) according to the manufacturer's recommendations followed by 1×PBS wash. After saturating the Fc-receptors with CD16/CD32-blocking antibody (BioLegend), single-cell suspensions were incubated on ice with conjugated antibodies in PBS (Ca^2+ and Mg^2+-free).
Dead cells were routinely excluded with Zombie UV Fixable Viability Kit (BioLegend) or Fixable Aqua Dead Cell Stain (Thermo Fisher Scientific). Lineage-positive cells were excluded by staining for B220 (RA3-6B2), […] (145-2C11), TCRβ (H57-597), TCRγδ (eBioGL3), Ter119 (Ter119), NK1.1 (PK136), CD11b (M1/70), and CD11c (N418). […] Data were analyzed using the FlowJo software. […]

ST2L [7] = experiment: Immunoblot analysis of ST2L expression in primary MEFs treated with IL-33; assay type: cell-based, mouse
Description: as §1, §2

Sv2a mRNA = experiment: Q-PCR analysis of lung Sv2a gene expression in intranasally treated mice; assay type: in vivo, mouse; details: IL-33 100 ng intranasal, 4 hr
Excerpt: as §3, with “For the IL-33 or papain-induced lung inflammation models, mice were treated intranasally on days 1, 2, and 3. Bone marrows and lungs were harvested, processed, and analyzed on day 4.” left out
Quantitative real time polymerase chain reaction (Q-PCR) analyses were performed as described^38. Briefly, cDNA prepared using the iScript cDNA Synthesis kit (Bio-Rad) were analyzed by Q-PCR using the CFX-96 Real-Time Detection System (Bio-Rad). The Q-PCR primer sequences of genes were: Sv2a forward—[…] (SEQ ID NO:2), Sv2a reverse […] (SEQ ID NO:3), St2l forward […] (SEQ ID NO:4), St2l reverse […] (SEQ ID NO:5), sSt2 forward—[…] (SEQ ID NO:6), sSt2 reverse […] (SEQ ID NO:7). Il1rap forward—[…] (SEQ ID NO:8), Il1rap reverse—[…] (SEQ ID NO:9), Il5 forward—[…] (SEQ ID NO:10), Il5 reverse—[…] (SEQ ID NO:11), Il13 forward—[…] […]

Il13 and Il5 = experiment: Q-PCR analysis of Il13 and Il5 gene induction in primary MEFs treated with IL-33; assay type: cell-based, mouse; details: WT MEFs
Description: as §1
Quantitative real time polymerase chain reaction (Q-PCR) analyses were performed as described^38. Briefly, cDNA prepared using the iScript cDNA Synthesis kit (Bio-Rad) were analyzed by Q-PCR using the CFX-96 Real-Time Detection System (Bio-Rad). The Q-PCR primer sequences of genes were: Sv2a forward—[…] (SEQ ID NO:2), Sv2a reverse […] (SEQ ID NO:3), St2l forward […] (SEQ ID NO:4), St2l reverse […] (SEQ ID NO:5), sSt2 forward—[…] (SEQ ID NO:6), sSt2 reverse […] (SEQ ID NO:7). Il1rap forward—[…] (SEQ ID NO:8), Il1rap reverse—[…] (SEQ ID NO:9), Il5 forward—[…] (SEQ ID NO:10), Il5 reverse—[…] (SEQ ID NO:11), Il13 forward—[…] (SEQ ID NO:12), Il13 reverse—[…] (SEQ ID NO:13), Hprt forward—[…] (SEQ ID NO:14), Hprt reverse—[…] (SEQ ID NO:15), Gapdh forward—[…] (SEQ ID NO:16), Gapdh reverse—[…] (SEQ ID NO:17).

T1 sequence (Q9JIS5 whole entry): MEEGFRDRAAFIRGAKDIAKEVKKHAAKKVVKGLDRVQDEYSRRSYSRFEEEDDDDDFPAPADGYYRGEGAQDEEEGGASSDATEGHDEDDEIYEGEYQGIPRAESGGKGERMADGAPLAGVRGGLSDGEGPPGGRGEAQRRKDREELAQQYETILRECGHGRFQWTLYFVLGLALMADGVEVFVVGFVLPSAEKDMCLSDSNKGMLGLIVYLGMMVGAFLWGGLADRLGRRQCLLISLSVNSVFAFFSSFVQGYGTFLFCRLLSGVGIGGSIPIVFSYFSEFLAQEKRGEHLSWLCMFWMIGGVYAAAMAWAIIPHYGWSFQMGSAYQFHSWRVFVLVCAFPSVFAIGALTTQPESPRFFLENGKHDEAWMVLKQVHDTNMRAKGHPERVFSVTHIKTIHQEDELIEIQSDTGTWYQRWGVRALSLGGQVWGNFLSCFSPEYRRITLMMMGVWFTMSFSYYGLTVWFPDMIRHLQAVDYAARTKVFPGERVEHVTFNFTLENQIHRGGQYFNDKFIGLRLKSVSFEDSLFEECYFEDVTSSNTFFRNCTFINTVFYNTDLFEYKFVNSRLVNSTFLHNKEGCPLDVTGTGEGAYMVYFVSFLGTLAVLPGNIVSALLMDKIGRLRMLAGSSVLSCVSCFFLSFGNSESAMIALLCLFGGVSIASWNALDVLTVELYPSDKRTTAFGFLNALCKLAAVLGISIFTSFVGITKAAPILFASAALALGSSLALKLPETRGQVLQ

For C[C@@H]1C[C@@H]([C@H](O)CC2CC(=O)NC(=O)C2)C(=O)[C@@H](C)C1 [CHX, cycloheximde], the “ST2L expression (immunoblot)” value (ST2L [1]; Sv2a KO MEFs, 6 hr after CHX treatment) was “no longer detectable”, the “reduction of percentage of ST2+ cells (flow cytometry)” value (ST2L [1]; Sv2a KO MEFs, CHX 20 hr) was “more than 15 fold” and the “percentage of ST2+ cells after CHX” value (ST2L [1]; Sv2a KO MEFs, CHX 20 hr (from 13.7% untreated)) was 0.78%. For the same molecule, the “ST2L expression (immunoblot)” value (ST2L [1]; WT MEFs, 6 hr after CHX treatment) was “only modestly reduced”, the “ST2L expression (immunoblot)” value (ST2L [1]; WT MEFs, CHX for 20 hr) was “remained to be detectable” and the “reduction of ST2+ cells (flow cytometry)” value (ST2L [1]; WT primary MEFs, CHX 20 hr) was “about 3 fold”. For the same molecule, the “percentage of ST2+ cells after CHX” value (ST2L [1]; WT primary MEFs, CHX 20 hr (from 20.5% untreated)) was 6.35%.

With CC[C@@H](C(N)=O)N1CCCC1=O [LEV, (S)-(−)-α-ethyl-2-oxo-1-pyrrolidine acetamide] the “development of BM ILC2P” value (BM ILC2P) was “suppressed”, the “SV2A protein in the brain (immunoblot)” value (SV2A protein [2]; LEV 17 mg/kg intranasal, C57/BL6 mice) was “did not reduce” and the “ST2L protein in the lungs (immunoblot)” value (ST2L [3]) was “clear suppression; also recorded: reduced”. The “degradation of brain SV2A protein with excess lung protein extracts from Sv2a-/- pup” value (SV2A protein [4]; 0.2 μg WT brain extract, 10 mM LEV) was “completely degraded”, the “degradation of brain SV2A protein with excess brain protein extracts from Sv2a-/- pup” value (SV2A protein [4]; 0.2 μg WT brain extract, LEV 0.1 mM, 0.5 mM, 10 mM) was “did not cause the degradation” and the “SV2A protein in brain extracts” value (SV2A protein [4]; brain extracts, LEV, similar conditions (37° C.)) was “failed to reduce”. For the same molecule, the “frequency of lung ILC2s, papain-induced ILC2 responses” value (lung ILC2s [5]) was “reducing”, the “production of IL-5 and IL-13 by lung ILC2s, papain-induced” value (lung ILC2s [5]) was “blocking” and the “populations of lung ILC2 cells producing IL-13 and IL-5” value (lung ILC2s [6]; day 4) was “suppressed”. The “reduction of the cell numbers of lung ILC2s” value (lung ILC2s [6]; lungs harvested day 4) was “about 50%” and the “reduction of the frequency of lung ILC2s” value (lung ILC2s [6]; lungs harvested day 4) was “about 50%”.

B1: IL-33: alarmin cytokine that signals through its receptor ST2; used as stimulus (R&D) (protein, UniProt O95760 1-270, looked up)
Interleukin-33: MKPKMKYSTNKISTAKWKNTASKALCFKLGKSQQKAKEVCPMYFMKLRSGLMIKKEACYFRRETTKRPSLKTGRKHKRHLVLAACQQQSTVECFAFGISGVQKYTRALHDSSITGISPITEYLASLSTYNDQSITFALEDESYEIYVEDLKKDEKKDKVLLSYYESQHPSNESGDGVDGKMLMVTLSPTKDFWLHANNKEHSVELHKCEKPLPDQAFFVLHNMHSNCVSFECKTDPGVFIGVKDNHLALIKVDSSENLCTENILFKLSET
In the case of B1, the “level of ST2L (immunoblot)” value (ST2L [7]; Sv2a KO MEFs, IL-33 for 20 hr) is reported as “dramatic reduction”, the “level of ST2L (immunoblot)” value (ST2L [7]; WT MEFs, IL-33) is reported as “not reduced” and the “levels of Sv2a mRNA in the lungs (Q-PCR)” value (Sv2a mRNA) is reported as “did not suppress”. The “SV2A protein in the lungs (immunoblot)” value (SV2A protein [2]; IL-33 100 ng intranasal, 4 hr) was “reduction; also recorded: suppressed” and the “IL33-triggered induction of Il13 and Il5 (Q-PCR)” value (Il13 and Il5) was “significantly increased”.
